Measured values reported in patent US8497255B2, “Phosphonic acids as S1P receptor modulators” (Allergan, Inc., priority 2010, dated 2013).

molecular target: T1, human S1P1 receptor (Homo sapiens, UniProt P21453); assay: GTP γ35S binding assay for S1P1 activity; assay type: biochemical; conditions: activity potency, S1P1 receptor from GTP γ35S binding; membranes, 30 min at 25° C.
T1 construct: expressed in transfected cells; membranes used
Method: Compounds were synthesized and tested for S1P1 activity using the GTP γ^35S binding assay. These compounds may be assessed for their ability to activate or block activation of the human S1P1 receptor in cells stably expressing the S1P1 receptor.
GTP γ^35S binding was measured in the medium containing (mM) HEPES 25, pH 7.4, MgCl2 10, NaCl 100, dithitothreitol 0.5, digitonin 0.003%, 0.2 nM GTP γ^35S, and 5 μg membrane protein in a volume of 150 μl. Test compounds were included in the concentration range from 0.08 to 5,000 nM unless indicated otherwise. Membranes were incubated with 100 μM 5′-adenylylimmidodiphosphate for 30 min, and subsequently with 10 μM GDP for 10 min on ice. Drug solutions and membrane were mixed, and then reactions were initiated by adding GTP γ^35S and continued for 30 min at 25° C. Reaction mixtures were filtered over Whatman GF/B filters under vacuum, and washed three times with 3 mL of ice-cold buffer (HEPES 25, pH7.4, MgCl2 10 and NaCl 100). Filters were dried and mixed with scintillant, and counted for ^35S activity using a β-counter. Agonist-induced GTP γ^35S binding was obtained by subtracting that in the absence of agonist. Binding data were analyzed using a non-linear regression method. In case of antagonist assay, the reaction mixture contained 10 nM S1P in the presence of test antagonist at concentrations ranging from 0.08 to 5000 nM.

T1 sequence (P21453 whole entry): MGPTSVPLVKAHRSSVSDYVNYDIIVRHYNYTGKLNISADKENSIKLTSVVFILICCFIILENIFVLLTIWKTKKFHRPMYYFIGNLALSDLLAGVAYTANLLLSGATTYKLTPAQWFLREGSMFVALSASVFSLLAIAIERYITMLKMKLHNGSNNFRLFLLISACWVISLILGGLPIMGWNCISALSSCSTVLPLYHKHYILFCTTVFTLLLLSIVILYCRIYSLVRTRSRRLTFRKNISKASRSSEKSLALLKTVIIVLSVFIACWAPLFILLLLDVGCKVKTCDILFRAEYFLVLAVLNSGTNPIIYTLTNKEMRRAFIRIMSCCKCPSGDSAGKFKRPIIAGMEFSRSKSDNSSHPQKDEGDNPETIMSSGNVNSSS

EC50 | Structure (SMILES)
3.14 nM | CC(C)Oc1ccc(-c2nc(-c3ccc(CNCCCP(=O)(O)O)cc3)no2)cc1C(F)(F)F [Compound 1, {3-[(4-{5-[4-isopropoxy-3-(trifluoromethyl)phenyl]-1,2,4-oxadiazol-3-yl}benzyl)amino]propyl}phosphonic acid]
1.78 nM | CC(C)Cc1ccc(-c2nc(-c3ccc(CNCCCP(=O)(O)O)cc3)no2)cc1 [Compound 3, (3-{4-[5-(4-Isobutyl-phenyl)-[1,2,4]oxadiazol-3-yl]-benzylamino}-propyl)-phosphonic acid]
3.1 nM | CC(C)Oc1ccc(-c2nc(-c3ccc(CNCCCP(=O)(O)O)cc3)no2)cc1Br [Compound 2, [3-({4-[5-(3-bromo-4-isopropoxyphenyl)-1,2,4-oxadiazol-3-yl]benzyl}amino)propyl]phosphonic acid]
